The test system of one data set is WT HeLa cells. As to conditions: CCK-8, 100–300 µM, 16 h; three or four independent experiments in technical triplicates. The protocol:
(§1) three or four independent experiments with 4 – 7 images taken per well in each […]
(§2) 7. Peptide cytotoxicity assays
(§3) The cytotoxicity of acetylated peptide 29 in WT Jurkat T cells and WT HeLa cells was determined using Cell Counting Kit-8 (CCK-8). Jurkat cells were seeded at 5 x 10^4 cells/well and HeLa cells were seeded at 5 x 10^3 cells/well in 96-well flat-bottom cell culture plates (Greiner Bio-One). HeLa cells were allowed to adhere overnight at 37°C […]
(§4) 200 µM for Jurkat cells and 100 µM, 200 µM or 300 µM for HeLa cells in a total volume of 100 µL, each concentration in triplicate wells. In addition, three wells containing media alone as the background, three wells containing vehicle (H2O) treated cells as the negative control and three wells containing cells treated with 5% DMSO (Jurkat cells) or 20% DMSO (HeLa cells) to induce cell death as the positive control, were included in the plate. Cells were incubated with the peptide or controls for 24 hours (Jurkat cells) or 16 hours (HeLa cells) at 37°C and 5% CO2, then 10 µL of CCK-8 solution (Sigma-Aldrich) was added to each well and incubated for 1.5 hours at 37°C

Another data set has as its system WT Jurkat T cells. As to conditions: CCK-8, 50–200 μM, 24 h; four independent experiments in technical triplicates. The protocol:
as §1, §2, §3, §4

Data set [1] has as its target T1, full‐length SHP2 (Homo sapiens, UniProt Q06124).
T1 construct: 1–525) proteins were prepared; His-SUMO3 (pETM11-SUMO3 vector) (N, cleaved yes); made in house; host or cells: E. coli BL21(DE3)
T1 sequence (Q06124 1-525): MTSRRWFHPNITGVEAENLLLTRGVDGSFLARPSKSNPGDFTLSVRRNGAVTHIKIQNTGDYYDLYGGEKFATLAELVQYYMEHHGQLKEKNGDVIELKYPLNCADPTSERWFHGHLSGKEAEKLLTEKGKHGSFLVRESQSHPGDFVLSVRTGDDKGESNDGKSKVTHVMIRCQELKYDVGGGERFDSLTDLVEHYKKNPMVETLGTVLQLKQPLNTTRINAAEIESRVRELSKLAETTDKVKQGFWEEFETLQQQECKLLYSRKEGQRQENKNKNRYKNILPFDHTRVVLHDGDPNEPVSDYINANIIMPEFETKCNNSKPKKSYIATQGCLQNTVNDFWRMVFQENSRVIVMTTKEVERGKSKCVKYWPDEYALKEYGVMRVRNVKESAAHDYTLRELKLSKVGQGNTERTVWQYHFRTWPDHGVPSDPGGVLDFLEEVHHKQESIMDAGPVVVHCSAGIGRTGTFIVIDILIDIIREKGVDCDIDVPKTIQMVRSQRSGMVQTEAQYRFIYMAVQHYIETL
Put plainly: DiFMUP phosphatase assay, peptide inhibition in the presence of ITIM-[dPEG4]2-ITSM activator. As to conditions: 0.5 nM full-length SHP2 activated with 26 nM bisphosphorylated ITIM-[dPEG4]2-ITSM, 200 µM DiFMUP, pH 7.6, 20 min pre-incubation at room temperature; two or three independent experiments in technical triplicates; read-out: IC50 ± SEM (DiFMUP activity assay). The class given is biochemical. The protocol: (§5) 6. DiFMUP phosphatase assays
SHP2 dephosphorylation of the fluorogenic substrate 6,8-difluoro-4-methylumbiliferyl phosphate (DiFMUP) was measured to evaluate the effect of acetylated peptides on SHP2 activity. Final concentrations of 0.5 nM full-length SHP2, 200 µM DiFMUP (Invitrogen) and 26 nM bisphosphorylated tandem ITIM-[dPEG4]2-ITSM (CASLO ApS) were used, unless stated otherwise, per well in 96-well plates (OptiPlate-96 F Black; PerkinElmer). For peptide activation assays, each well contained 60 µL of reaction buffer (50 mM HEPES pH 7.6, 150 mM NaCl, 1 mM EDTA, 0.05% Tween 20, freshly added 5 mM DTT), 10 µL of SHP2 and 20 µL of the test peptide (0.096 nM – 51.2 µM final concentration). For peptide inhibition assays in the presence of a SHP2 activator, each well contained 40 µL of reaction buffer (50 mM HEPES pH 7.6, 150 mM NaCl, 1 mM EDTA, 0.05% Tween 20, freshly added 5 mM DTT), 10 µL of SHP2 and 40 µL of previously mixed bisphosphorylated tandem ITIM-[dPEG4]2-ITSM activator and test peptide (0.096 nM – 51.2 µM or 0.376 nM – 200 µM final concentration). To obtain the maximal activity, 10 µL of SHP2 and 20 µL of bisphosphorylated tandem ITIM-[dPEG4]2-ITSM activator was added to 60 µL of buffer. Samples were incubated for 20 minutes at room temperature and then 10 µL of DiFMUP was added to each sample, to give a final volume of 100 µL per well. For background subtraction, 10 µL of DiFMUP was added to 80 µL of buffer. The fluorescence was immediately measured on a Synergy H1 Microplate Reader (BioTek) with the excitation and emission monitored at 358 nm and 452 nm, respectively, over 30 minutes. Data were analysed in Excel 2016 by subtracting background values from emission values and calculating the slope of the emission profiles. Data were then further analysed in GraphPad Prism 6 by either: 1) plotting the slope against the peptide concentration and fitting the data to a variable slope model of non-linear regression; or 2) normalising the data to the maximal activity (SHP2 in the presence of ITIM-[dPEG4]2-ITSM; set to 100% activity) to obtain the % activity, plotting the % activity against the peptide concentration and fitting the data to a variable slope model of non-linear regression to obtain the IC50 values. Data are from two or three independent experiments, each performed in […]

Data set [2] has as its target T1, full‐length SHP2. Description: DiFMUP phosphatase assay, peptide activation (no activator). The class given is biochemical. As to conditions: 0.5 nM full-length SHP2, no tandem activator, peptide 0.096 nM – 51.2 µM. The protocol: as §5
SHP2 dephosphorylation of the fluorogenic substrate 6,8-difluoro-4-methylumbiliferyl phosphate (DiFMUP) was measured to evaluate the effect of acetylated peptides on SHP2 activity. Final concentrations of 0.5 nM full-length SHP2, 200 µM DiFMUP (Invitrogen) and 26 nM bisphosphorylated tandem ITIM-[dPEG4]2-ITSM (CASLO ApS) were used, unless stated otherwise, per well in 96-well plates (OptiPlate-96 F Black; PerkinElmer). For peptide activation assays, each well contained 60 µL of reaction buffer (50 mM HEPES pH 7.6, 150 mM NaCl, 1 mM EDTA, 0.05% Tween 20, freshly added 5 mM DTT), 10 µL of SHP2 and 20 µL of the test peptide (0.096 nM – 51.2 µM final concentration). For peptide inhibition assays in the presence of a SHP2 activator, each well contained 40 µL of reaction buffer (50 mM HEPES pH 7.6, 150 mM NaCl, 1 mM EDTA, 0.05% Tween 20, freshly added 5 mM DTT), 10 µL of SHP2 and 40 µL of previously mixed bisphosphorylated tandem ITIM-[dPEG4]2-ITSM activator and test peptide (0.096 nM – 51.2 µM or 0.376 nM – 200 µM final concentration). […] The fluorescence was immediately measured on a Synergy H1 Microplate Reader (BioTek) with the excitation and emission monitored at 358 nm and 452 nm, respectively, over 30 minutes. Data were analysed in Excel 2016 by subtracting background values from emission values and calculating the slope of the emission profiles. […]

Data set [3] concerns full‐length SHP2 or isolated PTP domain. Put plainly: EnzChek phosphate assay (peptide as substrate). The class given is biochemical. As to conditions: 50 nM full-length SHP2 or PTP domain, peptide 25–800 µM, absorbance 360 nm, three independent experiments. On the procedure:
7. EnzChek phosphate assays
The EnzChek Phosphate Assay Kit (Thermo Fisher Scientific), which measures the release of inorganic phosphate generated from an enzymatic reaction, was used to evaluate Ac-ITSM(pTyr) and acetylated peptide 21 as potential substrates of SHP2. A reaction mixture consisting of 43 µL of dH2O, 0.5 µL of 1 M DTT ([…]), 5 µL of 20X reaction buffer, 20 µL of 2-amino-6-mercapto-7-methylpurine riboside (MESG) solution, 1.5 µL of purine nucleoside phosphorylase (PNP) solution and 10 µL of 0.5 µM full-length SHP2 or PTP domain (50 nM final concentration) was added to each well in a 96-well plate (SpectraPlate-96 MB; PerkinElmer). Samples were incubated for 10 minutes at room temperature and then 20 µL of Ac-ITSM(pTyr) or peptide 21 (final concentrations: 800 µM, 400 µM, 200 µM, 100 µM, 25 µM) was added to give a final volume of 100 µL per well. The absorbance was immediately measured at 360 nm on a Synergy H1 Microplate Reader (BioTek).
Data were analysed in GraphPad Prism 6 by plotting the absorbance against the peptide concentration. Data are from three independent experiments, each performed in technical triplicates.

Non-standard residues stand in square brackets, D forms with d. Residues, ends and D or L forms follow the SMILES beside them. *: point of attachment. pY = N[C@@H](Cc1ccc(OP(=O)(O)O)cc1)C(=O)O; AEEA = NCCOCCOCC(=O)O; X1 = O=C(O)C(C(=O)O)*

One may read the IC50 as the midpoint of a concentration-inhibition curve.

In the case of `CC[C@H](C)[C@H](NC(=O)[C@@H](NC(=O)[C@H](C)NC(=O)[C@H](Cc1ccc(OC(C(=O)O)C(=O)O)cc1)NC(=O)[C@H](CCC(=O)O)NC(=O)[C@@H](NC(=O)[C@H](CCC(N)=O)NC(=O)COCCOCCNC(=O)[C@@H](CCCNC(=N)N)NC(=O)[C@@H](CCCNC(=N)N)NC(=O)[C@@H](CCCNC(=N)N)NC(=O)[C@@H](CCCNC(=N)N)NC(=O)[C@@H](CCCNC(=N)N)NC(=O)[C@@H](CCCNC(=N)N)NC(=O)[C@@H](CCCNC(=N)N)NC(=O)[C@@H](CCCNC(=N)N)NC(C)=O)[C@@H](C)O)[C@@H](C)O)C(=O)N[C@@H](CCCCN)C(=O)N[C@@H](Cc1c[nH]cn1)C(=O)N1CCC[C@H]1C(N)=O` [peptide 29] (Ac-[dR][dR][dR][dR][dR][dR][dR][dR][AEEA]QTEY(X1)ATIKHP-NH2), the “cytotoxicity (viability) in HeLa cells” value in the data set on WT HeLa cells is recorded as “no toxicity”. For the same molecule, in the data set with WT Jurkat T cells, the “cytotoxicity (viability) in Jurkat cells” value is reported as “only started showing a trend toward some toxicity at the highest concentration of 200 μM”.

Take `CC[C@H](C)[C@H](NC(=O)[C@@H](NC(=O)[C@H](C)NC(=O)[C@H](Cc1ccc(OC(C(=O)O)C(=O)O)cc1)NC(=O)[C@H](CCC(=O)O)NC(=O)[C@@H](NC(=O)[C@H](CCC(N)=O)NC(C)=O)[C@@H](C)O)[C@@H](C)O)C(=O)N[C@@H](CCCCN)C(=O)N[C@@H](Cc1c[nH]cn1)C(=O)N1CCC[C@H]1C(N)=O` [peptide 24] (Ac-QTEY(X1)ATIKHP-NH2): the IC50 on full‐length SHP2 [1] is 7.82 ± 1.95 µM.

Regarding `CC[C@H](C)[C@H](NC(=O)[C@@H](NC(=O)[C@H](C)NC(=O)[C@H](Cc1ccc(OP(=O)(O)O)cc1)NC(=O)[C@H](CCC(=O)O)NC(=O)[C@@H](NC(=O)[C@H](CCC(N)=O)NC(C)=O)[C@@H](C)O)[C@@H](C)O)C(=O)N[C@@H](CCCCN)C(=O)N[C@@H](Cc1c[nH]cn1)C(=O)N1CCC[C@H]1C(N)=O` [peptide 21] (Ac-QTE[pY]ATIKHP-NH2), the IC50 on full‐length SHP2 [1] was determined as 1.05 ± 0.502 µM. Also, the “SHP2 phosphatase activity with peptide alone (activation)” value on full‐length SHP2 [2] was “activated SHP2 only minimally at the highest peptide concentration”. Further, the “suitability as substrate of SHP2 (dephosphorylation)” value in data set [3] is “not a good SHP2 substrate”.
